Experimental data taken from patent publication US20250255867A1 (Kadmon Corporation, LLC, priority 2022, published 2025).

Settings: Cohort 1 200 mg QD

## CC(C)NC(=O)COc1cccc(-c2nc(Nc3ccc4[nH]ncc4c3)c3ccccc3n2)c1 [Belumosudil, 2-{3-[4-(1H-indazol-5-ylamino)-2-quinazolinyl]phenoxy}-N-(propan-2-yl) acetamide]
  SAE Lipomatosis, # events: 1
  SAE Lipomatosis, affected/at risk: 1/17
  SAE Metastases to meninges, # events: 1
  SAE Metastases to meninges, affected/at risk: 1/17
  SAE Muscular weakness, # events: 0
  SAE Muscular weakness, affected/at risk: 0/17
  SAE Myelodysplastic syndrome, # events: 0
  SAE Myelodysplastic syndrome, affected/at risk: 0/17
  SAE Non-cardiac chest pain, # events: 0
  SAE Non-cardiac chest pain, affected/at risk: 0/17
  SAE Obliterative bronchiolitis, # events: 1
  SAE Obliterative bronchiolitis, affected/at risk: 1/17
  SAE Pericardial effusion, # events: 0
  SAE Pericardial effusion, affected/at risk: 0/17
  SAE Pleural effusion, # events: 0
  SAE Pleural effusion, affected/at risk: 0/17
  SAE Pneumonia viral, # events: 0
  SAE Pneumonia viral, affected/at risk: 0/17
  SAE Pneumonia, # events: 2
  SAE Pneumonia, affected/at risk: 1/17
  SAE Pregnancy of partner, # events: 0
  SAE Pregnancy of partner, affected/at risk: 0/17
  SAE Proteinuria, # events: 1
  SAE Proteinuria, affected/at risk: 1/17
  SAE Respirovirus test positive, # events: 0
  SAE Respirovirus test positive, affected/at risk: 0/17
  SAE Small intestinal obstruction, # events: 0
  SAE Small intestinal obstruction, affected/at risk: 0/17
  SAE Stenotrophomonas infection, # events: 0
  SAE Stenotrophomonas infection, affected/at risk: 0/17
  SAE Urinary retention, # events: 0
  SAE Urinary retention, affected/at risk: 0/17
  SAE Urinary tract infection, # events: 0
  SAE Urinary tract infection, affected/at risk: 0/17
  SAE Varicella zoster virus infection, # events: 0
  SAE Varicella zoster virus infection, affected/at risk: 0/17
  SAE total, affected/at risk: 5/17
  Sinus pain: # Events: 2
  Sinus pain: Affected/At Risk: 2/17
  Sinus pain: Affected/At Risk (%): (11.76%)
  Sinusitis: # Events: 1
  Sinusitis: Affected/At Risk: 1/17
  Sinusitis: Affected/At Risk (%): (5.88%)
  Skin abrasion: # Events: 0
  Skin abrasion: Affected/At Risk: 0/17
  Skin abrasion: Affected/At Risk (%): (0%)
  Skin lesion: # Events: 0
  Skin lesion: Affected/At Risk: 0/17
  Skin lesion: Affected/At Risk (%): (0%)
  Skin papilloma: # Events: 1
  Skin papilloma: Affected/At Risk: 1/17
  Skin papilloma: Affected/At Risk (%): (5.88%)
  Spinal compression fracture: # Events: 1
  Spinal compression fracture: Affected/At Risk: 1/17
  Spinal compression fracture: Affected/At Risk (%): (5.88%)
  Squamous cell carcinoma of skin: # Events: 0
  Squamous cell carcinoma of skin: Affected/At Risk: 0/17
  Squamous cell carcinoma of skin: Affected/At Risk (%): (0%)
  Stomatitis: # Events: 2
  Stomatitis: Affected/At Risk: 1/17
  Stomatitis: Affected/At Risk (%): (5.88%)
  Superior vena cava syndrome: # Events: 0
  Superior vena cava syndrome: Affected/At Risk: 0/17
  Superior vena cava syndrome: Affected/At Risk (%): (0%)
  Tachycardia: # Events: 0
  Tachycardia: Affected/At Risk: 0/17
  Tachycardia: Affected/At Risk (%): (0%)
  Tendonitis: # Events: 0
  Tendonitis: Affected/At Risk: 0/17
  Tendonitis: Affected/At Risk (%): (0%)
  Testicular pain: # Events: 1
  Testicular pain: Affected/At Risk: 1/17
  Testicular pain: Affected/At Risk (%): (5.88%)
  Testicular swelling: # Events: 1
  Testicular swelling: Affected/At Risk: 1/17
  Testicular swelling: Affected/At Risk (%): (5.88%)
  Thoracic spinal stenosis: # Events: 1
  Thoracic spinal stenosis: Affected/At Risk: 1/17
  Thoracic spinal stenosis: Affected/At Risk (%): (5.88%)
  Thrombocytopenia: # Events: 0
  Thrombocytopenia: Affected/At Risk: 0/17
  Thrombocytopenia: Affected/At Risk (%): (0%)
  Thrombocytosis: # Events: 1
  Thrombocytosis: Affected/At Risk: 1/17
  Thrombocytosis: Affected/At Risk (%): (5.88%)
  Tinea pedis: # Events: 0
  Tinea pedis: Affected/At Risk: 0/17
  Tinea pedis: Affected/At Risk (%): (0%)
  Tooth fracture: # Events: 0
  Tooth fracture: Affected/At Risk: 0/17
  Tooth fracture: Affected/At Risk (%): (0%)
  Total Other Adverse Events: Affected/At Risk: 17/17
  Total Other Adverse Events: Affected/At Risk (%): (100%)
  Transfusion reaction: # Events: 1
  Transfusion reaction: Affected/At Risk: 1/17
  Transfusion reaction: Affected/At Risk (%): (5.88%)
  Tremor: # Events: 3
  Tremor: Affected/At Risk: 2/17
  Tremor: Affected/At Risk (%): (11.76%)
  Type 2 diabetes mellitus: # Events: 1
  Type 2 diabetes mellitus: Affected/At Risk: 1/17
  Type 2 diabetes mellitus: Affected/At Risk (%): (5.88%)
  Ulcerative keratitis: # Events: 0
  Ulcerative keratitis: Affected/At Risk: 0/17
  Ulcerative keratitis: Affected/At Risk (%): (0%)
  Upper respiratory tract infection: # Events: 16
  Upper respiratory tract infection: Affected/At Risk: 9/17
  Upper respiratory tract infection: Affected/At Risk (%): (52.94%)
  Upper-airway cough syndrome: # Events: 0
  Upper-airway cough syndrome: Affected/At Risk: 0/17
  Upper-airway cough syndrome: Affected/At Risk (%): (0%)
  Urinary retention: # Events: 0
  Urinary retention: Affected/At Risk: 0/17
  Urinary retention: Affected/At Risk (%): (0%)
  Urinary tract infection: # Events: 0
  Urinary tract infection: Affected/At Risk: 0/17
  Urinary tract infection: Affected/At Risk (%): (0%)
  Urinary tract pain: # Events: 0
  Urinary tract pain: Affected/At Risk: 0/17
  Urinary tract pain: Affected/At Risk (%): (0%)
  Urine output decreased: # Events: 1
  Urine output decreased: Affected/At Risk: 1/17
  Urine output decreased: Affected/At Risk (%): (5.88%)
  Vascular access complication: # Events: 0
  Vascular access complication: Affected/At Risk: 0/17
  Vascular access complication: Affected/At Risk (%): (0%)
  Vertigo: # Events: 2
  Vertigo: Affected/At Risk: 2/17
  Vertigo: Affected/At Risk (%): (11.76%)
  Vision blurred: # Events: 0
  Vision blurred: Affected/At Risk: 0/17
  Vision blurred: Affected/At Risk (%): (0%)
  Vomiting: # Events: 4
  Vomiting: Affected/At Risk: 2/17
  Vomiting: Affected/At Risk (%): (11.76%)
  Weight decreased: # Events: 1
  Weight decreased: Affected/At Risk: 1/17
